Assay results: the supplement of paper PMC10331698
± gives the standard deviation of the averaged measurements.

Tests used:
Assay in all cases: level (log10 ratio to DMSO vehicle control); higher = higher biomarker level / cell amount than vehicle control
Conditions in all cases: in DMSO
[1] = compound: C=CC(=O)OCC(F)(F)C(F)(F)C(F)(F)C(F)(F)C(F)(F)C(F)(F)C(F)(F)F [1H,1H-Perfluorooctyl acrylate]
Protocol: (§1)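 BioMAP Diversity Plus panel of 12 human primary cell co-culture systems (3C, 4H, LPS, SAg, BT, BF4T, BE3C, CASM3C, HDF3CGF, KF3CT, MyoF, Mphg). Compounds were added 1 h before stimulation and left for 24 h (MyoF 48 h; BT 72 h for soluble read-outs or 6 d for IgG). Biomarkers were read by ELISA, cytotoxicity by SRB, PBMC viability and proliferation by Alamar Blue. Each well value was divided by the mean of 8 DMSO control wells on the same plate and log10 transformed; duplicate blinded samples were tested at 4 concentrations.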

[2] = compound: COC(=O)CCC(F)(F)C(F)(F)C(F)(F)C(F)(F)F [Methyl 2H,2H,3H,3H-perfluoroheptanoate]
Protocol: as §1

Perfluoropentanoic acid = compound: O=C(O)C(F)(F)C(F)(F)C(F)(F)C(F)(F)F [Perfluoropentanoic acid]
Protocol: as §1

[3] = compound: O=C(O)C(F)(F)C(F)(F)C(F)F [4H-Perfluorobutanoic acid]
Protocol: as §1

[4] = compound: O=C(O)C(F)(F)OC(F)(F)C(F)(F)OC(F)(F)C(=O)O [Perfluoro-3,6-dioxaoctane-1,8-dioic acid]
Protocol: as §1

[5] = compound: O=S(=O)(O)C(F)(F)C(F)(F)C(F)(F)C(F)(F)C(F)(F)C(F)(F)F [Perfluorohexanesulfonic acid]
Protocol: as §1

Test System | level (log10) ([1]; 6700 nM) | level (log10) ([1]; 20000 nM) | level (log10) ([1]; 60000 nM) | level (log10) ([2]; 6700 nM) | level (log10) ([2]; 20000 nM) | level (log10) ([2]; 60000 nM) | level (log10) (Perfluoropentanoic acid; 6700 nM) | level (log10) (Perfluoropentanoic acid; 20000 nM) | level (log10) (Perfluoropentanoic acid; 60000 nM) | level (log10) ([3]; 6700 nM) | level (log10) ([3]; 20000 nM) | level (log10) ([3]; 60000 nM) | level (log10) ([4]; 6700 nM) | level (log10) ([4]; 20000 nM) | level (log10) ([4]; 60000 nM) | level (log10) ([5]; 6700 nM) | level (log10) ([5]; 20000 nM) | level (log10) ([5]; 60000 nM)
HDF3CGF:TIMP-1 | -0.026 ± 0.05 | -0.029 ± 0.0057 | -0.015 ± 0.038 | -0.0015 ± 0.022 | 0.008 ± 0.014 | 0.014 ± 0.011 | -0.0195 ± 0.0021 | -0.032 ± 0.014 | 0.0115 ± 0.011 | -0.015 ± 0.031 | -0.007 ± 0.0014 | 0.0115 ± 0.021 | -0.037 ± 0.0099 | -0.009 ± 0.0028 | 0.041 ± 0.051 | 0.0145 ± 0.016 | 0.049 ± 0.021 | 0.094 ± 0.038
HDF3CGF:TIMP-2 | 0.0145 ± 0.016 | -0.023 ± 0.011 | -0.041 ± 0.0028 | 0.0295 ± 0.019 | -0.0065 ± 0.03 | 0.0195 ± 0.043 | 0.009 ± 0.024 | -0.0155 ± 0.018 | -0.0025 ± 0.011 | -0.0295 ± 0.066 | -0.01 ± 0.044 | -0.003 ± 0.059 | -0.0145 ± 0.035 | -0.0075 ± 0.011 | 0.001 ± 0.027 | -0.0055 ± 0.015 | 0.0095 ± 0.0035 | -0.02 ± 0.0099
KF3CT:CCL2/MCP-1 | -0.0195 ± 0.022 | -0.0195 ± 0.0021 | -0.016 ± 0.011 | -0.0185 ± 0.035 | -0.0515 ± 0.026 | 0.013 ± 0.048 | 0.002 ± 0.02 | -0.025 ± 0.025 | 0.0215 ± 0.05 | -0.0705 ± 0.0092 | -0.032 ± 0.0099 | -0.0115 ± 0.023 | -0.0135 ± 0.016 | -0.011 ± 0.0057 | -0.0045 ± 0.013 | 0.0075 ± 0.032 | -0.001 ± 0.013 | 0.0205 ± 0.023
KF3CT:CD54/ICAM-1 | -0.005 ± 0.016 | -0.0075 ± 0.005 | -0.0045 ± 0.0092 | 0.005 ± 0.0028 | 0.021 ± 0.024 | -0.01 ± 0.04 | 0.004 ± 0.0057 | 0.001 ± 0.013 | 0.016 ± 0.028 | 0.005 ± 0.0028 | -0.0115 ± 0.0035 | -0.006 ± 0.011 | 0 ± 0.0057 | 0.01 | 0.0065 ± 0.015 | -0.0165 ± 0.005 | -0.0165 ± 0.0078 | -0.013 ± 0.014
KF3CT:CXCL8/IL-8 | -0.0205 ± 0.021 | -0.0005 ± 0.019 | 0.0405 ± 0.0021 | -0.0125 ± 0.019 | -0.007 ± 0.013 | 0.0175 ± 0.044 | -0.0025 ± 0.019 | -0.0035 ± 0.005 | 0.016 ± 0.0071 | 0.0025 ± 0.0078 | 0.01 ± 0.0085 | 0.017 ± 0.0042 | -0.0015 ± 0.0078 | 0.0025 ± 0.033 | 0.026 ± 0.025 | 0.015 ± 0.02 | 0.03 ± 0.0057 | 0.038 ± 0.0057
KF3CT:CXCL9/MIG | 0.005 ± 0.0042 | -0.0035 ± 0.0035 | 0.008 ± 0.0099 | -0.003 ± 0.0057 | 0.004 ± 0.0042 | -0.02 ± 0.0028 | -0.002 ± 0.0057 | -0.0055 ± 0.0021 | 0.0085 ± 0.013 | -0.004 ± 0.016 | -0.011 ± 0.011 | -0.007 ± 0.0071 | -0.0035 ± 0.0092 | 0.0065 ± 0.0078 | 0.017 ± 0.0099 | 0.001 ± 0.021 | 0.002 ± 0.0071 | 0.013 ± 0.013
KF3CT:CXCL10/IP-10 | 0.0055 ± 0.0035 | 0 ± 0.0071 | -0.003 ± 0.014 | 0.005 ± 0.02 | -0.003 ± 0.0014 | -0.005 ± 0.0014 | 0.002 ± 0.0042 | -0.0085 ± 0.0035 | 0.0025 ± 0.016 | -0.007 ± 0.016 | -0.0035 ± 0.016 | 0.01 ± 0.0042 | 0.0045 ± 0.011 | 0.0095 ± 0.022 | 0.029 ± 0.0085 | -0.006 | -0.016 ± 0.0028 | -0.022 ± 0.016
KF3CT:IL-1alpha | -0.0075 ± 0.022 | -0.001 ± 0.0071 | -0.007 ± 0.0028 | -0.0295 ± 0.019 | -0.019 ± 0.018 | -0.0095 ± 0.029 | -0.004 ± 0.017 | 0.004 ± 0.0028 | -0.0115 ± 0.021 | 0.001 ± 0.05 | -0.0055 ± 0.005 | 0.0075 ± 0.06 | 0.0075 ± 0.00071 | -0.0065 ± 0.013 | 0.02 ± 0.013 | 0.0065 ± 0.054 | -0.014 ± 0.016 | -0.015 ± 0.017
KF3CT:MMP-9 | -0.0245 ± 0.00071 | -0.0225 ± 0.019 | -0.014 ± 0.014 | -0.012 ± 0.047 | -0.0145 ± 0.035 | -0.024 ± 0.017 | -0.0225 ± 0.025 | -0.0205 ± 0.018 | 0.012 ± 0.038 | -0.024 ± 0.055 | -0.0395 ± 0.012 | -0.0775 ± 0.00071 | -0.0105 ± 0.012 | 0 ± 0.0042 | 0.007 ± 0.0085 | 0.0095 ± 0.0064 | 0.028 ± 0.0014 | 0.027 ± 0.0057
KF3CT:PAI-I | -0.0075 ± 0.00071 | -0.01 ± 0.013 | -0.0135 ± 0.018 | -0.01 ± 0.013 | -0.009 ± 0.0042 | -0.0105 ± 0.0092 | 0.0005 ± 0.021 | -0.003 | 0.004 ± 0.0057 | 0.0015 ± 0.022 | 0.046 ± 0.02 | -0.0075 ± 0.073 | -0.0145 ± 0.025 | -0.0125 ± 0.00071 | 0.003 ± 0.018 | -0.0105 ± 0.012 | -0.0325 ± 0.00071 | -0.0435 ± 0.0021
KF3CT:SRB | -0.007 ± 0.0014 | -0.0055 ± 0.00071 | -0.002 ± 0.0071 | -0.018 ± 0.016 | -0.0055 ± 0.005 | 0 ± 0.018 | -0.007 ± 0.0071 | -0.004 ± 0.0014 | 0.0055 ± 0.011 | -0.005 ± 0.0071 | -0.0065 ± 0.0064 | -0.008 ± 0.0014 | -0.0185 ± 0.011 | -0.0185 ± 0.0092 | 0.0015 ± 0.012 | -0.0015 ± 0.0021 | -0.0095 ± 0.005 | 0.0005 ± 0.023
KF3CT:TIMP-2 | -0.0075 ± 0.00071 | -0.0155 ± 0.018 | -0.0075 ± 0.032 | -0.004 ± 0.017 | -0.012 ± 0.011 | -0.0125 ± 0.043 | -0.013 ± 0.037 | -0.0065 ± 0.0035 | 0.017 ± 0.045 | 0.002 ± 0.031 | -0.011 ± 0.016 | 0.004 ± 0.0099 | -0.0075 ± 0.042 | -0.0015 ± 0.04 | 0.0055 ± 0.011 | 0.0005 ± 0.0064 | 0.012 ± 0.0042 | 0.019 ± 0.013
KF3CT:uPA | 0.01 ± 0.0014 | -0.004 ± 0.013 | 0.0135 ± 0.023 | -0.007 ± 0.033 | 0.0005 ± 0.0092 | -0.008 ± 0.025 | 0.0015 ± 0.023 | 0 ± 0.0085 | 0.021 ± 0.0071 | 0.0125 ± 0.028 | 0.0275 ± 0.0064 | 0.007 ± 0.035 | 0.0005 ± 0.0078 | 0 ± 0.0071 | 0.012 ± 0.0014 | -0.0135 ± 0.015 | -0.0105 ± 0.015 | -0.002 ± 0.0014
MyoF:CD106/VCAM-1 | -0.011 ± 0.0042 | -0.0095 ± 0.0035 | -0.024 ± 0.0042 | -0.003 ± 0.0014 | 0.0105 ± 0.021 | 0.018 ± 0.011 | 0.0025 ± 0.005 | 0.001 | -0.001 ± 0.0057 | -0.0065 ± 0.011 | -0.017 ± 0.0071 | 0.0135 ± 0.015 | -0.022 ± 0.016 | 0.0025 ± 0.005 | 0.0005 ± 0.019 | 0.005 ± 0.018 | 0.003 ± 0.0042 | -0.0145 ± 0.023
MyoF:CXCL8/IL-8 | 0.002 ± 0.0099 | 0.037 ± 0.062 | 0.0185 ± 0.036 | -0.0085 ± 0.00071 | -0.001 ± 0.0071 | 0.0155 ± 0.039 | -0.008 ± 0.02 | 0.01 ± 0.0071 | 0.024 ± 0.014 | -0.0125 ± 0.059 | -0.0145 ± 0.0035 | 0.0465 ± 0.074 | -0.0025 ± 0.023 | -0.012 ± 0.0085 | 0.034 ± 0.045 | 0.001 ± 0.061 | -0.0185 ± 0.063 | -0.018 ± 0.051
MyoF:Collagen I | -0.0195 ± 0.018 | -0.03 | -0.0145 ± 0.011 | 0.0055 ± 0.016 | 0.0035 ± 0.011 | -0.004 ± 0.021 | -0.0065 ± 0.0092 | -0.008 ± 0.0085 | 0.0065 ± 0.015 | -0.0215 ± 0.022 | -0.0115 ± 0.018 | -0.0115 ± 0.0092 | 0.0015 ± 0.015 | -0.005 ± 0.0099 | 0.002 ± 0.011 | -0.0035 ± 0.023 | 0.008 ± 0.025 | 0.019 ± 0.028
